{"source": "patent US12427134B2", "about": "“Methods of reducing the risk of cardiovascular events in a subject with atrial fibrillation and/or atrial flutter” (priority 2019, dated 2025)", "system": "hypertriglyceridemic patients with cardiovascular disease or at high risk for cardiovascular disease", "experiment": "REDUCE-IT: treatment-emergent adverse events and serious adverse events (safety population)", "key": {"[1]": {"conditions": "BMI ≥25 to <30 kg/m^2 (N = 1427)"}, "[2]": {"conditions": "No Ezetimibe at baseline (N = 3827)"}, "[3]": {"conditions": "Region Eastern Europe (N = 1053)"}}, "description": "Specification of Variables and Procedures: Safety assessments included adverse events, clinical laboratory measurements (chemistry, hematology), 12-lead ECGs, vital signs (systolic and diastolic blood pressure, heart rate, respiratory rate, and body temperature), weight, waist circumference, and physical examinations as per Study Procedures in Table 1. […] All laboratory test results were evaluated by the investigator as to their clinical significance. Any observations at physical examinations or laboratory values considered by the investigator to be clinically significant were considered an adverse event.\nAn adverse event can therefore be any unfavorable and/or unintended sign (including an abnormal laboratory finding), symptom, or disease temporally associated with the use of an investigational medication product, whether or not related to the investigational medication product. All adverse events, including observed or volunteered problems, complaints, or symptoms, were recorded on the appropriate CRF. Each adverse event was evaluated for duration, intensity, and causal relationship with the study medication or other factors.\nAdverse events, which included clinical laboratory test variables, were monitored from the time of informed consent until study participation was complete. Patients were instructed to report any adverse event that they experienced to the investigator. Beginning with Visit 2, investigators assessed for adverse events at each visit and recorded the event on the appropriate adverse event CRF.\nCausality Assessment: The relationship of an adverse event to the administration of the study drug was assessed according to the following definitions: • No (unrelated, not related, no relation)—The time course between the administration of study drug and the occurrence or worsening of the adverse event rules out a causal relationship and another cause (concomitant drugs, therapies, complications, etc.) is suspected. • Yes (related, probably related, possibly related)—The time course between the administration of study drug and the occurrence or worsening of the adverse event is consistent with a causal relationship and no other cause (concomitant drugs, therapies, complications, etc.) can be identified.\nSerious Adverse Events: A serious adverse event (SAE) is defined as an adverse event that meets any of the following criteria: • Results in death; • Is life-threatening—The term “life-threatening” in the definition of “serious” refers to an event in which the patient was at risk of death at the time of the event. […] Important medical events that may not result in death, be life threatening, or require hospitalization were considered an SAE when, based upon appropriate medical judgment, they may have jeopardized the patient and may have required medical or surgical intervention to prevent one of the outcomes listed above.\nAnalysis of Safety: All analyses of safety were conducted on the safety population, which was defined as all randomized patients. The safety assessment was based on the frequency of adverse events, physical exams, vital signs and safety laboratory tests. AEs with new onset during the study between the initiation of study drug and 30 days after the last dose of study drug for each patient was considered treatment-emergent (TEAEs). This included any AE with onset prior to initiation of study drug and increased severity after the treatment initiation.\nThis included overall incidence rates (regardless of severity and relationship to study drug), and incidence rates for moderate or severe adverse events. A summary of SAEs and adverse events leading to early discontinuation (for ≥30 days) were presented through data listings. Patients who restarted study drug were included in the summary of AEs leading to discontinuation.", "data": [{"compound": "CC/C=C\\C/C=C\\C/C=C\\C/C=C\\C/C=C\\CCCC(=O)OCC", "note": "[AMR101, eicosapentaenoic acid ethyl ester]", "values": [{"measurement": "Patients with at least 1 TEAE, %", "setting": "Age <65 years (N = 2232)", "value": "(77.3) %"}, {"measurement": "TEAE: GI disorders, %", "setting": "Age <65 years (N = 2232)", "value": "(27.9) %"}, {"measurement": "TEAE: General disorders and administration site condition, %", "setting": "Age <65 years (N = 2232)", "value": "(21.6) %"}, {"measurement": "TEAE: Musculoskeletal and connective tissue disorders, %", "setting": "Age <65 years (N = 2232)", "value": "(31.4) %"}, {"measurement": "TEAE: Nervous system disorders, %", "setting": "Age <65 years (N = 2232)", "value": "(20.3) %"}, {"measurement": "TEAE: Respiratory, thoracic, and mediastinal disorders, %", "setting": "Age <65 years (N = 2232)", "value": "(18.9) %"}, {"measurement": "Patients with at least 1 TEAE, %", "setting": "Age ≥65 years (N = 1857)", "value": "(87.1) %"}, {"measurement": "TEAE: GI disorders, %", "setting": "Age ≥65 years (N = 1857)", "value": "(39.2) %"}, {"measurement": "TEAE: General disorders and administration site condition, %", "setting": "Age ≥65 years (N = 1857)", "value": "(29.5) %"}, {"measurement": "TEAE: Musculoskeletal and connective tissue disorders, %", "setting": "Age ≥65 years (N = 1857)", "value": "(41.2) %"}, {"measurement": "TEAE: Nervous system disorders, %", "setting": "Age ≥65 years (N = 1857)", "value": "(29.7) %"}, {"measurement": "TEAE: Respiratory, thoracic, and mediastinal disorders, %", "setting": "Age ≥65 years (N = 1857)", "value": "(30.5) %"}, {"measurement": "TEAEs, overall incidence", "setting": "Asia Pacific region subgroup", "value": 76.9, "unit": "%"}, {"measurement": "TEAE class nervous system disorders, patients", "setting": "Asian Pacific region subgroup", "value": 20.8, "unit": "%"}, {"measurement": "Patients with at least 1 TEAE, %", "setting": "BMI <25 kg/m^2 (N = 320)", "value": "(80.6) %"}, {"measurement": "TEAE: GI disorders, %", "setting": "BMI <25 kg/m^2 (N = 320)", "value": "(33.8) %"}, {"measurement": "TEAE: General disorders and administration site condition, %", "setting": "BMI <25 kg/m^2 (N = 320)", "value": "(23.1) %"}, {"measurement": "TEAE: Musculoskeletal and connective tissue disorders, %", "setting": "BMI <25 kg/m^2 (N = 320)", "value": "(26.9) %"}, {"measurement": "TEAE: Nervous system disorders, %", "setting": "BMI <25 kg/m^2 (N = 320)", "value": "(22.8) %"}, {"measurement": "TEAE: Respiratory, thoracic, and mediastinal disorders, %", "setting": "BMI <25 kg/m^2 (N = 320)", "value": "(21.3) %"}, {"measurement": "Patients with at least 1 TEAE, %", "setting": "[1]", "value": "(81.5) %"}, {"measurement": "TEAE: GI disorders, %", "setting": "[1]", "value": "(30.8) %"}, {"measurement": "TEAE: General disorders and administration site condition, %", "setting": "[1]", "value": "(24.0) %"}, {"measurement": "TEAE: Musculoskeletal and connective tissue disorders, %", "setting": "[1]", "value": "(33.4) %"}, {"measurement": "TEAE: Nervous system disorders, %", "setting": "[1]", "value": "(23.6) %"}, {"measurement": "TEAE: Respiratory, thoracic, and mediastinal disorders, %", "setting": "[1]", "value": "(22.7) %"}, {"measurement": "TEAE class GI disorders, patients", "setting": "BMI ≥25 to <30 kg/m^2 subgroup", "value": 30.8, "unit": "%"}, {"measurement": "Patients with at least 1 TEAE, %", "setting": "BMI ≥30 kg/m^2 (N = 2331)", "value": "(82.3) %"}, {"measurement": "TEAE: GI disorders, %", "setting": "BMI ≥30 kg/m^2 (N = 2331)", "value": "(34.3) %"}, {"measurement": "TEAE: General disorders and administration site condition, %", "setting": "BMI ≥30 kg/m^2 (N = 2331)", "value": "(26.3) %"}, {"measurement": "TEAE: Musculoskeletal and connective tissue disorders, %", "setting": "BMI ≥30 kg/m^2 (N = 2331)", "value": "(38.7) %"}, {"measurement": "TEAE: Nervous system disorders, %", "setting": "BMI ≥30 kg/m^2 (N = 2331)", "value": "(25.5) %"}, {"measurement": "TEAE: Respiratory, thoracic, and mediastinal disorders, %", "setting": "BMI ≥30 kg/m^2 (N = 2331)", "value": "(25.6) %"}, {"measurement": "Patients with at least 1 TEAE, %", "setting": "Baseline Ezetimibe (N = 262)", "value": "(92.0) %"}, {"measurement": "TEAE: GI disorders, %", "setting": "Baseline Ezetimibe (N = 262)", "value": "(37.4) %"}, {"measurement": "TEAE: General disorders and administration site condition, %", "setting": "Baseline Ezetimibe (N = 262)", "value": "(26.3) %"}, {"measurement": "TEAE: Musculoskeletal and connective tissue disorders, %", "setting": "Baseline Ezetimibe (N = 262)", "value": "(41.2) %"}, {"measurement": "TEAE: Nervous system disorders, %", "setting": "Baseline Ezetimibe (N = 262)", "value": "(23.7) %"}, {"measurement": "TEAE: Respiratory, thoracic, and mediastinal disorders, %", "setting": "Baseline Ezetimibe (N = 262)", "value": "(27.5) %"}, {"measurement": "Patients with at least 1 TEAE, %", "setting": "CV Risk Category 1 (N = 2892)", "value": "(81.6) %"}, {"measurement": "TEAE: GI disorders, %", "setting": "CV Risk Category 1 (N = 2892)", "value": "(31.3) %"}, {"measurement": "TEAE: General disorders and administration site condition, %", "setting": "CV Risk Category 1 (N = 2892)", "value": "(25.3) %"}, {"measurement": "TEAE: Musculoskeletal and connective tissue disorders, %", "setting": "CV Risk Category 1 (N = 2892)", "value": "(33.6) %"}, {"measurement": "TEAE: Nervous system disorders, %", "setting": "CV Risk Category 1 (N = 2892)", "value": "(23.4) %"}, {"measurement": "TEAE: Respiratory, thoracic, and mediastinal disorders, %", "setting": "CV Risk Category 1 (N = 2892)", "value": "(23.4) %"}, {"measurement": "Patients with at least 1 TEAE, %", "setting": "CV Risk Category 2 (N = 1197)", "value": "(82.1) %"}, {"measurement": "TEAE: GI disorders, %", "setting": "CV Risk Category 2 (N = 1197)", "value": "(37.2) %"}, {"measurement": "TEAE: General disorders and administration site condition, %", "setting": "CV Risk Category 2 (N = 1197)", "value": "(24.9) %"}, {"measurement": "TEAE: Musculoskeletal and connective tissue disorders, %", "setting": "CV Risk Category 2 (N = 1197)", "value": "(41.3) %"}, {"measurement": "TEAE: Nervous system disorders, %", "setting": "CV Risk Category 2 (N = 1197)", "value": "(27.4) %"}, {"measurement": "TEAE: Respiratory, thoracic, and mediastinal disorders, %", "setting": "CV Risk Category 2 (N = 1197)", "value": "(26.1) %"}, {"measurement": "Patients with at least 1 TEAE, %", "setting": "Female (N = 1162)", "value": "(79.9) %"}, {"measurement": "TEAE: GI disorders, %", "setting": "Female (N = 1162)", "value": "(38.3) %"}, {"measurement": "TEAE: General disorders and administration site condition, %", "setting": "Female (N = 1162)", "value": "(25.5) %"}, {"measurement": "TEAE: Musculoskeletal and connective tissue disorders, %", "setting": "Female (N = 1162)", "value": "(37.6) %"}, {"measurement": "TEAE: Nervous system disorders, %", "setting": "Female (N = 1162)", "value": "(27.6) %"}, {"measurement": "TEAE: Respiratory, thoracic, and mediastinal disorders, %", "setting": "Female (N = 1162)", "value": "(23.4) %"}, {"measurement": "Patients with at least 1 TEAE, %", "setting": "Male (N = 2927)", "value": "(82.5) %"}, {"measurement": "TEAE: GI disorders, %", "setting": "Male (N = 2927)", "value": "(30.9) %"}, {"measurement": "TEAE: General disorders and administration site condition, %", "setting": "Male (N = 2927)", "value": "(25.1) %"}, {"measurement": "TEAE: Musculoskeletal and connective tissue disorders, %", "setting": "Male (N = 2927)", "value": "(35.2) %"}, {"measurement": "TEAE: Nervous system disorders, %", "setting": "Male (N = 2927)", "value": "(23.3) %"}, {"measurement": "TEAE: Respiratory, thoracic, and mediastinal disorders, %", "setting": "Male (N = 2927)", "value": "(24.5) %"}, {"measurement": "Patients with at least 1 TEAE, %", "setting": "[2]", "value": "(81.1) %"}, {"measurement": "TEAE: GI disorders, %", "setting": "[2]", "value": "(32.7) %"}, {"measurement": "TEAE: General disorders and administration site condition, %", "setting": "[2]", "value": "(25.1) %"}, {"measurement": "TEAE: Musculoskeletal and connective tissue disorders, %", "setting": "[2]", "value": "(35.5) %"}, {"measurement": "TEAE: Nervous system disorders, %", "setting": "[2]", "value": "(24.6) %"}, {"measurement": "TEAE: Respiratory, thoracic, and mediastinal disorders, %", "setting": "[2]", "value": "(24.0) %"}, {"measurement": "Patients with at least 1 TEAE, %", "setting": "Race Non-white (N = 398)", "value": "(81.4) %"}, {"measurement": "TEAE: GI disorders, %", "setting": "Race Non-white (N = 398)", "value": "(28.9) %"}, {"measurement": "TEAE: General disorders and administration site condition, %", "setting": "Race Non-white (N = 398)", "value": "(25.4) %"}, {"measurement": "TEAE: Musculoskeletal and connective tissue disorders, %", "setting": "Race Non-white (N = 398)", "value": "(30.9) %"}, {"measurement": "TEAE: Nervous system disorders, %", "setting": "Race Non-white (N = 398)", "value": "(23.4) %"}, {"measurement": "TEAE: Respiratory, thoracic, and mediastinal disorders, %", "setting": "Race Non-white (N = 398)", "value": "(23.9) %"}, {"measurement": "Patients with at least 1 TEAE, %", "setting": "Race White (N = 3691)", "value": "(81.8) %"}, {"measurement": "TEAE: GI disorders, %", "setting": "Race White (N = 3691)", "value": "(33.5) %"}, {"measurement": "TEAE: General disorders and administration site condition, %", "setting": "Race White (N = 3691)", "value": "(25.2) %"}, {"measurement": "TEAE: Musculoskeletal and connective tissue disorders, %", "setting": "Race White (N = 3691)", "value": "(36.4) %"}, {"measurement": "TEAE: Nervous system disorders, %", "setting": "Race White (N = 3691)", "value": "(24.7) %"}, {"measurement": "TEAE: Respiratory, thoracic, and mediastinal disorders, %", "setting": "Race White (N = 3691)", "value": "(24.2) %"}, {"measurement": "Patients with at least 1 TEAE, %", "setting": "Region Asia Pacific (N = 130)", "value": "(76.9) %"}, {"measurement": "TEAE: GI disorders, %", "setting": "Region Asia Pacific (N = 130)", "value": "(18.5) %"}, {"measurement": "TEAE: General disorders and administration site condition, %", "setting": "Region Asia Pacific (N = 130)", "value": "(22.3) %"}, {"measurement": "TEAE: Musculoskeletal and connective tissue disorders, %", "setting": "Region Asia Pacific (N = 130)", "value": "(17.7) %"}, {"measurement": "TEAE: Nervous system disorders, %", "setting": "Region Asia Pacific (N = 130)", "value": "(20.8) %"}, {"measurement": "TEAE: Respiratory, thoracic, and mediastinal disorders, %", "setting": "Region Asia Pacific (N = 130)", "value": "(17.7) %"}, {"measurement": "Patients with at least 1 TEAE, %", "setting": "[3]", "value": "(58.1) %"}, {"measurement": "TEAE: GI disorders, %", "setting": "[3]", "value": "(11.9) %"}, {"measurement": "Patients with at least 1 TEAE, %", "setting": "Region Westernized (N = 2906)", "value": "(90.5) %"}, {"measurement": "TEAE: GI disorders, %", "setting": "Region Westernized (N = 2906)", "value": "(41.3) %"}, {"measurement": "TEAE: General disorders and administration site condition, %", "setting": "Region Westernized (N = 2906)", "value": "(32.2) %"}, {"measurement": "TEAE: Musculoskeletal and connective tissue disorders, %", "setting": "Region Westernized (N = 2906)", "value": "(46.4) %"}, {"measurement": "TEAE: Nervous system disorders, %", "setting": "Region Westernized (N = 2906)", "value": "(30.0) %"}]}]}
